In patent US20120028888A1, “APJ RECEPTOR COMPOUNDS” (priority 2008, published 2012):
Residues, ends and D or L forms follow the SMILES beside them. *: point of attachment. Palmitoyl = CCCCCCCCCCCCCCCC(=O)*; X1 = CCCCCCCCCCCOCCCC(=O)*

target: T1, Gi-coupled receptor APJ (HEK cells stably expressing the APJ receptor) (Homo sapiens, UniProt P35414); experiment: HTRF cAMP assay: inhibition of NKH477 stimulated increase in cAMP; type: cell-based; conditions: read-out: EC50 value (nM), SEM
T1 construct: expressed in transfected cells; host or cells: HEK cells stably expressing APJ
T1 sequence (P35414 1-380): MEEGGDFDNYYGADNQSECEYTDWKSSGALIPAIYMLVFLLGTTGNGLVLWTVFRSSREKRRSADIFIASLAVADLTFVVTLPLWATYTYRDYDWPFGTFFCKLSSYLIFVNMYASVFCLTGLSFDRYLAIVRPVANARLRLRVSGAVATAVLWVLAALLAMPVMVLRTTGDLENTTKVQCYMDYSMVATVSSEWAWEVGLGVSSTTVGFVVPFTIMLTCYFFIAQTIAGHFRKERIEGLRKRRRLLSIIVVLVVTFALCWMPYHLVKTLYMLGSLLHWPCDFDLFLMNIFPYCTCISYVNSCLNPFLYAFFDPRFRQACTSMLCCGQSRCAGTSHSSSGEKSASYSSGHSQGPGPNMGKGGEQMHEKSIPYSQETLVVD
Excerpt: HTRF (homogeneous time resolved fluorescence) is a technology developed by Cisbio Bioassays based on TR-FRET (time-resolved fluorescence resonance energy transfer). Cisbio Bioassays has developed a wide selection of HTRF-based assays compatible with whole cells, thereby enabling functional assays to run under more physiological conditions. The IP-One assays are competitive immunoassays using cryptate-labeled anti-IPI monoclonal antibody and d2-labeled IP1. IP1 is a relatively stable downstream metabolite of IP3, and accumulates in cells following Gq receptor activation.
cAMP kits based on a competitive immunoassay using cryptate-labeled anti-cAMP antibody and d2-labeled cAMP were used to assay the effects of APJ compounds of the present invention. This assay measures the increase in intracellular cAMP upon Gs-coupled receptor activation as well as decrease in forskolin (or a more soluble version of forskolin—NKH477) stimulated increase in cAMP upon Gi-coupled receptor activation.

SMILES | EC50 [nM]
CCCCCCCCCCCCCCCC(=O)N[C@H](C(=O)N[C@H](C(=O)N[C@@H](Cc1ccccc1)C(=O)N[C@@H](CCCNC(=N)N)C(=O)N[C@@H](CO)C(=O)N[C@@H](CO)C(=O)N[C@@H](CCCNC(=N)N)C(=O)N[C@@H](CCC(=O)O)C(=O)N[C@@H](CCCCN)C(=O)N[C@@H](CCCNC(=N)N)C(=O)N[C@@H](CCCNC(=N)N)C(=O)N[C@@H](C)C(=O)N[C@@H](C)C(=O)N[C@@H](CC(=O)O)C(=O)N[C@H](C(=O)N[C@@H](Cc1ccccc1)C(=O)N[C@H](C(N)=O)[C@@H](C)CC)[C@@H](C)CC)C(C)C)[C@@H](C)O [Compound 32] (Palmitoyl-TVFRSSREKRRAADIFI-NH2) | 1 to 500
CCCCCCCCCCCCCCCC(=O)N[C@H](C(=O)N[C@H](C(=O)N[C@@H](Cc1ccccc1)C(=O)N[C@@H](CCCNC(=N)N)C(=O)N[C@@H](CO)C(=O)N[C@@H](CO)C(=O)N[C@@H](CCCNC(=N)N)C(=O)N[C@@H](CCC(=O)O)C(=O)N[C@@H](CCCCN)C(=O)N[C@@H](CCCNC(=N)N)C(=O)N[C@@H](CCCNC(=N)N)C(=O)N[C@@H](CO)C(=O)N[C@@H](C)C(=O)N[C@@H](CC(=O)O)C(=O)N[C@H](C(=O)N[C@@H](Cc1ccccc1)C(=O)N[C@@H](C)C(N)=O)[C@@H](C)CC)C(C)C)[C@@H](C)O [Compound 40] (Palmitoyl-TVFRSSREKRRSADIFA-NH2) | 501 to 1000
CCCCCCCCCCCOCCCC(=O)N[C@H](C(=O)N[C@H](C(=O)N[C@@H](Cc1ccccc1)C(=O)N[C@@H](CCCNC(=N)N)C(=O)N[C@@H](CO)C(=O)N[C@@H](CO)C(=O)N[C@@H](CCCNC(=N)N)C(=O)N[C@@H](CCC(=O)O)C(=O)N[C@@H](CCCCN)C(=O)N[C@@H](CCCNC(=N)N)C(=O)N[C@@H](CCCNC(=N)N)C(=O)N[C@@H](CO)C(=O)N[C@@H](C)C(=O)N[C@@H](CC(=O)O)C(=O)N[C@H](C(=O)N[C@@H](Cc1ccccc1)C(=O)N[C@H](C(N)=O)[C@@H](C)CC)[C@@H](C)CC)C(C)C)[C@@H](C)O [Compound 60] (X1-TVFRSSREKRRSADIFI-NH2) | 1 to 500
CCCCCCCCCCCCCCCC(=O)N[C@H](C(=O)N[C@H](C(=O)N[C@@H](Cc1ccccc1)C(=O)N[C@@H](Cc1c[nH]c2ccccc12)C(=O)N[C@@H](CO)C(=O)N[C@@H](CO)C(=O)N[C@@H](CCCNC(=N)N)C(=O)N[C@@H](CCC(=O)O)C(=O)N[C@@H](CCCCN)C(=O)N[C@@H](CCCNC(=N)N)C(=O)N[C@@H](CCCNC(=N)N)C(=O)N[C@@H](CO)C(=O)N[C@@H](C)C(=O)N[C@@H](CC(=O)O)C(=O)N[C@H](C(=O)N[C@@H](Cc1ccccc1)C(=O)N[C@H](C(N)=O)[C@@H](C)CC)[C@@H](C)CC)C(C)C)[C@@H](C)O [Compound 36] (Palmitoyl-TVFWSSREKRRSADIFI-NH2) | 1000 to 5000
CCCCCCCCCCCCCCCC(=O)N[C@H](C(=O)N[C@H](C(=O)N[C@@H](CCCNC(=N)N)C(=O)N1CCC[C@H]1C(=O)N[C@H](C(=O)N[C@@H](C)C(=O)N[C@@H](CC(N)=O)C(=O)N[C@@H](C)C(=O)N[C@@H](CCCNC(=N)N)C(=O)N[C@@H](CC(C)C)C(=O)N[C@@H](CCCNC(=N)N)C(=O)N[C@@H](CC(C)C)C(=O)N[C@@H](CCCNC(=N)N)C(=O)N[C@H](C(=O)N[C@@H](CO)C(=O)NCC(N)=O)C(C)C)C(C)C)C(C)C)[C@@H](C)CC [Compound 77] (Palmitoyl-IVRPVANARLRLRVSG-NH2) | > 10000
CCCCCCCCCCCCCCCC(=O)N[C@H](C(=O)N[C@@H](CCCNC(=N)N)C(=O)N1CCC[C@H]1C(=O)N[C@H](C(=O)N[C@@H](C)C(=O)N[C@@H](CC(N)=O)C(=O)N[C@@H](C)C(=O)N[C@@H](CCCNC(=N)N)C(=O)N[C@@H](CC(C)C)C(=O)N[C@@H](CCCNC(=N)N)C(=O)N[C@@H](CC(C)C)C(=O)N[C@@H](CCCNC(=N)N)C(=O)N[C@H](C(=O)N[C@@H](CO)C(=O)NCC(N)=O)C(C)C)C(C)C)C(C)C [Compound 76] (Palmitoyl-VRPVANARLRLRVSG-NH2) | > 10000
